The results in this text go back to ChEMBL document CHEMBL1143316, “Japonicones A-D, bioactive dimeric sesquiterpenes from Inula japonica Thunb” (Bioorg Med Chem Lett, 2009).

≈ marks a conversion by molar mass, not a printed value.

Assay type in all cases: functional, cell-based
Assay [1] relates to A549. The assay is described as follows: Cytotoxicity against human A549 cells by MTT assay.
The test system of assay [2] is LoVo. Put plainly: Cytotoxicity against human LoVo cells by MTT assay.
Assay [3] deals with CCRF-CEM. The assay is described as follows: Cytotoxicity against human CEM cells by MTT assay.
Assay [4] has as its system MDA-MB-435. Put plainly: Cytotoxicity against human MDA-MB-435 cells by MTT assay.

`C=C1C(=O)O[C@@H]2C[C@@H](C)[C@]34C[C@]5(C(=O)O[C@H]6C[C@@]7(C)C(=C[C@H]65)[C@H](C)CC[C@@H]7O)[C@H](C(C)=C3C[C@@H]12)[C@@H]4OC(C)=O` [JAPONICONE A]: the IC50 was 1.62 µg/mL (≈ 3.02 µM) in assay [1], 0.256 µg/mL (≈ 0.477 µM) in assay [2], 1 ng/mL (≈ 0.00186 µM) in assay [3] and 0.198 µg/mL (≈ 0.369 µM) in assay [4].
